Laboratory results as given in EPA's ToxValDB 9.5 (doi:10.2903/j.efsa.2010.1337).

Tested on: not given
Conditions: subchronic; duration: 90 days

Q: Which NOAEL does the source give for `C1CCC(SSC2CCCCC2)CC1` [Dicyclohexyl disulfide] here?
A: The NOAEL was 0.23 mg/kg-day.

Tested on: Rattus norvegicus
Conditions: chronic; duration: 2 years

Q: With `C=O` [Formaldehyde] as the compound, how does the NOEL read?
A: The NOEL was 15 mg/kg-day.

Q: With `SCS` [Methanedithiol] as the compound, how does the NOEL read?
A: The NOEL was 15 mg/kg-day.

Same assay, conditions: chronic; duration: 91 days

Q: For `CCC1SSC(CC)S1` (stereo not drawn) [3,5-Diethyl-1,2,4-trithiolane], which NOEL is on record?
A: Its NOEL is 1.9 mg/kg-day.

Q: For `CC1SSC(C)S1` (stereo not drawn) [3,5-Dimethyl-1,2,4-trithiolane], which NOEL is on record?
A: The NOEL was 1.9 mg/kg-day.

Same assay, conditions: short-term; duration: 28 days

Q: For `CC=O` [Acetaldehyde], which NOEL is on record?
A: The NOEL was 125 mg/kg-day.

Q: Which NOEL does the source give for `CC(S)S` [Ethane-1,1-dithiol] here?
A: Its NOEL is 125 mg/kg-day.

Q: With `C=CCSC[C@H](N)C(=O)O` [S-Allylcysteine] as the compound, how does the NOEL read?
A: Its NOEL is 250 mg/kg-day.

Same assay, conditions: subchronic; duration: 90 days

Q: Which NOEL does the source give for `CC1SCCSS1` (stereo not drawn) [1,2,4-Trithiane, 3-methyl-] here?
A: Its NOEL is 0.3 mg/kg-day.

Q: With `Cc1ccccc1S` [2-Methylbenzenethiol] as the compound, how does the NOEL read?
A: The NOEL was 0.51 mg/kg-day.

Q: With `C=CCSSCCC` [Allyl propyl disulfide] as the compound, how does the NOEL read?
A: The NOEL was 4.6 mg/kg-day.

Q: With `CC(S)c1ccccc1` (stereo not drawn) [Benzenemethanethiol, .alpha.-methyl-] as the compound, how does the NOEL read?
A: Its NOEL is 0.43 mg/kg-day.

Q: For `Cc1cccc(C)c1S` [Benzenethiol, 2,6-dimethyl-], which NOEL is on record?
A: The NOEL was 0.43 mg/kg-day.

Q: For `COc1ccccc1S` [Benzenethiol, 2-methoxy-], which NOEL is on record?
A: Its NOEL is 0.51 mg/kg-day.

Q: Which NOEL does the source give for `C=CCSSSCC=C` [Diallyl trisulfide] here?
A: The NOEL was 4.6 mg/kg-day.

Q: With `CSCS` [Methylthiomethylmercaptan] as the compound, how does the NOEL read?
A: Its NOEL is 0.3 mg/kg-day.

Same assay, conditions: subchronic; duration: 90 days; oral

Q: With `CCC(S)SC(S)CC` (stereo not drawn) [1,1'-Sulfanediyldi(propane-1-thiol)] as the compound, how does the NOEL read?
A: The NOEL was 0.7 mg/kg-day.

Q: For `CC(S)C(C)S` (stereo not drawn) [2,3-Butanedithiol], which NOEL is on record?
A: The NOEL was 0.7 mg/kg-day.
